Assay [1] has as its target T1, recombinant Aurora A (Homo sapiens, UniProt O14965).
T1 construct: purchased Upstate, Lake Placid, N.Y
T1 sequence (O14965 1-403): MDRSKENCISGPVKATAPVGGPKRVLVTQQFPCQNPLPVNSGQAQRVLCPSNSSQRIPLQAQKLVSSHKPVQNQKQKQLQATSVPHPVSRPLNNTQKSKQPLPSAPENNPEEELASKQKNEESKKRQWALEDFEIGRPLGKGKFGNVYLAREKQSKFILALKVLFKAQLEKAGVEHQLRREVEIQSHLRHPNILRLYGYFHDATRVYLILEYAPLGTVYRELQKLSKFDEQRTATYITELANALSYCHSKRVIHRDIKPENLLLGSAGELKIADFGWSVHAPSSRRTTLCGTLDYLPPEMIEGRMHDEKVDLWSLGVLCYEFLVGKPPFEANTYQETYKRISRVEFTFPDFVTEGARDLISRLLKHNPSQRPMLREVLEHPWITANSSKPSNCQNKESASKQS
The assay can be described thus: Aurora A (Aurora 2) inhibition assay, Z'-Lyte kinase assay. It is filed as biochemical. The following applies: ATP 10 μM, 1 h. The essentials: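 Z'-Lyte FRET assay: Aurora A (200-500 ng/mL final), Ser/Thr 1 peptide (2 μM) and ATP (10 μM) in 50 mM HEPES pH 7.5, 10 mM MgCl2, 5 mM EGTA, 0.05% Brij-35, 2 mM DTT, 1 h at room temperature. Coumarin/fluorescein emission ratio converted to percent phosphorylation; dose-response curves plotted.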

In assay [2] the target is T2, N-terminal GST-tagged recombinant human Flt3, residues 564-end (Homo sapiens, UniProt P36888).
T2 construct: recombinant human Flt3, residues 564-end; GST (N); purchased Upstate USA Inc, 706 Forest Street, Charlottesville, Va
T2 sequence (P36888 564-993 limits assumed): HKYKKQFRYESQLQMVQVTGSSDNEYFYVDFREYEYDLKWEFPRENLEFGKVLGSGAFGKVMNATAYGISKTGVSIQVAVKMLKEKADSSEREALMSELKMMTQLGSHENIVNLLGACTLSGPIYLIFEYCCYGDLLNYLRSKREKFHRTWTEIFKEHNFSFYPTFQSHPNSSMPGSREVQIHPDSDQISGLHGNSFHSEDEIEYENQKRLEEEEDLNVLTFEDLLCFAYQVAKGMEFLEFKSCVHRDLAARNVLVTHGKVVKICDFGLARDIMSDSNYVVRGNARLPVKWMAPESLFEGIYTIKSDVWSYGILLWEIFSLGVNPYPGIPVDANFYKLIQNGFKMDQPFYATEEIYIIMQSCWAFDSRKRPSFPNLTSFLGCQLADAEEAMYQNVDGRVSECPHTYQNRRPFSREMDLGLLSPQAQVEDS
The assay can be described thus: Flt3 kinase inhibition assay (33P-ATP filter assay). Format: biochemical. The following applies: 40 minutes at room temperature. The essentials:
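Serial compound dilutions incubated 40 min at room temperature with 5-10 mU Flt3 kinase, 50 μM peptide substrate and [γ-33P]ATP/10 mM magnesium acetate, pH 7.0. Phosphoric acid stop, filter capture and scintillation counting; activity compared with uninhibited reactions.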

[3] abbreviates: group with IC50 greater than 100 nM.

Molecules are shown by their SMILES.

With `Cc1cc(Nc2cc(N(C)CCN(C)C)nc(-c3cccc(Cl)c3)n2)n[nH]1` [Compound 49, 2-(3-chlorophenyl)-N^4-(2-(dimethylamino)ethyl)-N^4-methyl-N^6-(5-methyl-1H-pyrazol-3-yl)pyrimidine-4,6-diamine], the IC50 (usually the concentration at which inhibition is half-maximal) in assay [1] (setting [3]) was no more than 1000 nM; in assay [2] it was no more than 100 nM.
In the case of `COc1cccc(-c2nc(Nc3cc(C)[nH]n3)cc(NC3CCOCC3)n2)c1` [Compound 29, 2-(3-methoxyphenyl)-N^4-(5-methyl-1H-pyrazol-3-yl)-N^6-(tetrahydro-2H-pyran-4-yl)pyrimidine-4,6-diamine], the IC50 in assay [1] and in assay [2] was no more than 100 nM each time.
`Cc1cc(Nc2cc(N(C)CCN(C)C)nc(-c3cc4ccccc4n3C)n2)n[nH]1` [Compound 4, N^4-(2-(dimethylamino)ethyl)-N^4-methyl-2-(1-methyl-1H-indol-2-yl)-N^6-(5-methyl-1H-pyrazol-3-yl)pyrimidine-4,6-diamine]: the IC50 in assay [1] (setting [3]) is no more than 1000 nM; in assay [2] it was no more than 100 nM.
In the case of `Cc1cc(Nc2cc(N3CCN(C)CC3)nc(-c3cc4cc(NS(=O)(=O)C5CC5)ccc4o3)n2)n[nH]1` [Example 155, N-(2-(4-(5-methyl-1H-pyrazol-3-ylamino)-6-(4-methylpiperazin-1-yl)pyrimidin-2-yl)benzofuran-5-yl)cyclopropanesulfonamide], the IC50 in assay [1] and in assay [2] was no more than 100 nM in each case.
As to `Cc1cc(Nc2cc(N3CCN(C)CC3)nc(-c3ccccc3C)n2)n[nH]1` [Compound 40, N-(5-methyl-1H-pyrazol-3-yl)-6-(4-methylpiperazin-1-yl)-2-o-tolylpyrimidin-4-amine], the IC50 is no more than 1000 nM in assay [1] (setting [3]) and no more than 100 nM in assay [2].
Consider `CC(=O)c1cccc(-c2nc(Nc3cc(C)[nH]n3)cc(N3CCN(C)CC3)n2)c1` [Example 165, 1-(3-(4-(5-methyl-1H-pyrazol-3-ylamino)-6-(4-methylpiperazin-1-yl)pyrimidin-2-yl)phenyl)ethanone], for which the IC50 in assay [1] and in assay [2] was no more than 100 nM throughout.
Turning to `Cc1cc(Nc2cc(N3CCN(C)CC3)nc(-c3ccc4c(c3)OCCO4)n2)n[nH]1` [Example 137, 2-(2,3-dihydrobenzo[b][1,4]dioxin-6-yl)-N-(5-methyl-1H-pyrazol-3-yl)-6-(4-methylpiperazin-1-yl)pyrimidin-4-amine], the IC50 in assay [1] and in assay [2] was no more than 100 nM throughout.
Regarding `Cc1cc(Nc2cc(N3CCN(C)CC3)nc(-c3ccc([N+](=O)[O-])cc3)n2)n[nH]1` [Example 164, N-(5-methyl-1H-pyrazol-3-yl)-6-(4-methylpiperazin-1-yl)-2-(4-nitrophenyl)pyrimidin-4-amine], the IC50 in assay [1] (setting [3]) is no more than 1000 nM; in assay [2], no more than 100 nM.
On to `Cc1cc(Nc2cc(NCCN3CCOCC3)nc(-c3ccccc3)n2)n[nH]1` [Compound 11, N^4-(5-methyl-1H-pyrazol-3-yl)-N^6-(2-morpholinoethyl)-2-phenylpyrimidine-4,6-diamine], for which the IC50 in assay [1] and in assay [2] was no more than 100 nM each time.
Regarding `Cc1cc(Nc2cc(N3CCN(C)CC3)nc(-c3cc(F)ccc3C)n2)n[nH]1` [Example 196, 2-(5-fluoro-2-methylphenyl)-N-(5-methyl-1H-pyrazol-3-yl)-6-(4-methylpiperazin-1-yl)pyrimidin-4-amine], the IC50 in assay [1] (setting [3]) was no more than 1000 nM; in assay [2], no more than 100 nM.
The corresponding values for `Cc1cc(Nc2cc(NC3CCOCC3)nc(-c3cc4ccccc4n3C)n2)n[nH]1` [Compound 7, N^4-(tetrahydro-2H-pyran-4-yl)-2-(1-methyl-1H-indol-2-yl)-N^6-(5-methyl-1H-pyrazol-3-yl)pyrimidine-4,6-diamine] are no more than 1000 nM and no more than 100 nM.
Turning to `Cc1ccc(F)c(-c2nc(Nc3cc(C)[nH]n3)cc(N3CCN(C)CC3)n2)c1` [Example 193, 2-(2-fluoro-5-methylphenyl)-N-(5-methyl-1H-pyrazol-3-yl)-6-(4-methylpiperazin-1-yl)pyrimidin-4-amine], the IC50 in assay [1] and in assay [2] was no more than 100 nM in each case.
`Cc1cc(Nc2cc(N3CCN(C)CC3)nc(-c3cccc4ccccc34)n2)n[nH]1` [Example 134, N-(5-methyl-1H-pyrazol-3-yl)-6-(4-methylpiperazin-1-yl)-2-(naphthalen-1-yl)pyrimidin-4-amine]: the IC50 in assay [1] and in assay [2] was no more than 100 nM throughout.
Consider `Cc1cccc(-c2nc(Nc3cc(C)[nH]n3)cc(N3CCN(C)CC3)n2)c1` [Compound 39, N-(5-methyl-1H-pyrazol-3-yl)-6-(4-methylpiperazin-1-yl)-2-m-tolylpyrimidin-4-amine], for which the IC50 in assay [1] and in assay [2] was no more than 100 nM each time.
With `COc1cc(OC)cc(-c2nc(Nc3cc(C)[nH]n3)cc(N3CCN(C)CC3)n2)c1` [Example 191, 2-(3,5-dimethoxyphenyl)-N-(5-methyl-1H-pyrazol-3-yl)-6-(4-methylpiperazin-1-yl)pyrimidin-4-amine], the IC50 in assay [1] and in assay [2] was no more than 100 nM each time.
On to `Cc1cc(Nc2cc(N3CCN(C)CC3)nc(-c3ccco3)n2)n[nH]1` [Compound 14, 2-(furan-2-yl)-N-(5-methyl-1H-pyrazol-3-yl)-6-(4-methylpiperazin-1-yl)-pyrimidin-4-amine], for which the values for the IC50 in assay [1] (setting [3]) and in assay [2] were no more than 1000 nM and no more than 100 nM, respectively.
Turning to `COCCNc1cc(Nc2cc(C)[nH]n2)nc(-c2ccccc2)n1` [Compound 10, N^4-(2-methoxyethyl)-N^6-(5-methyl-1H-pyrazol-3-yl)-2-phenylpyrimidine-4,6-diamine], the IC50 in assay [1] and in assay [2] was no more than 100 nM in each case.
Consider `Cc1cc(Nc2cc(N3CCN(C)CC3)nc(-c3ccc(C#N)cc3)n2)n[nH]1` [Example 160, 4-(4-(5-methyl-1H-pyrazol-3-ylamino)-6-(4-methylpiperazin-1-yl)pyrimidin-2-yl)benzonitrile], for which the IC50 in assay [1] (setting [3]) is no more than 1000 nM; in assay [2], no more than 100 nM.
The corresponding values for `Cc1cc(Nc2cc(NCCN3CCOCC3)nc(-c3cc4ccccc4n3C)n2)n[nH]1` [Compound 5, 2-(1-methyl-1H-indol-2-yl)-N^4-(5-methyl-1H-pyrazol-3-yl)-N^6-(2-morpholinoethyl)pyrimidine-4,6-diamine] are no more than 1000 nM and no more than 100 nM.
As to `CCc1ccccc1-c1nc(Nc2cc(C)[nH]n2)cc(NC2CCOCC2)n1` [Example 174, 2-(2-ethylphenyl)-N^4-(5-methyl-1H-pyrazol-3-yl)-N^6-(tetrahydro-2H-pyran-4-yl)pyrimidine-4,6-diamine], the IC50 is no more than 1000 nM in assay [1] (setting [3]) and no more than 100 nM in assay [2].
For `Cc1cc(Nc2cc(N3CCN(C)CC3)nc(-c3cc4ccccc4n3C)n2)n[nH]1` [Compound 2, 2-(1-methyl-1H-indol-2-yl)-N-(5-methyl-1H-pyrazol-3-yl)-6-(4-methylpiperazin-1-yl)pyrimidin-4-amine], the IC50 in assay [1] and in assay [2] was no more than 100 nM in each case.
Turning to `Cc1cc(Nc2cc(NC3CCOCC3)nc(-c3cc4ccccc4o3)n2)n[nH]1` [Compound 15, 2-(benzofuran-2-yl)-N^4-(tetrahydro-2H-pyran-4-yl)-N^6-(5-methyl-1H-pyrazol-3-yl)-pyrimidine-4,6-diamine], the IC50 in assay [1] and in assay [2] was no more than 100 nM in each case.
Regarding `CC(=O)N1CCN(c2cc(Nc3cc(C)[nH]n3)nc(-c3cc4ccccc4n3C)n2)CC1` [Compound 6, 1-(4-(6-(5-methyl-1H-pyrazol-3-ylamino)-2-(1-methyl-1H-indol-2-yl)pyrimidin-4-yl)-piperazin-1-yl)ethanone], the IC50 in assay [1] and in assay [2] was no more than 100 nM throughout.
`COCCN(C)c1cc(Nc2cc(C)[nH]n2)nc(-c2ccc3c(c2)OCO3)n1` [Example 153, 2-(benzo[d][1,3]dioxol-5-yl)-N^4-(2-methoxyethyl)-N^4-methyl-N^6-(5-methyl-1H-pyrazol-3-yl)pyrimidine-4,6-diamine]: the IC50 in assay [1] and in assay [2] was no more than 100 nM in each case.
Regarding `COCCN(C)c1cc(Nc2cc(C)[nH]n2)nc(-c2cccc(Cl)c2)n1` [Compound 62, 2-(3-chlorophenyl)-N^4-(2-methoxyethyl)-N^4-methyl-N^6-(5-methyl-1H-pyrazol-3-yl)pyrimidine-4,6-diamine], the IC50 is no more than 1000 nM in assay [1] (setting [3]) and no more than 100 nM in assay [2].
